In US9656988B2 (Pharmacyclics LLC, priority 2013, dated 2017):
pIC50: −log10 of the molar value. Where two headings read alike, the source gives them in different places.

Target: BTK (Homo sapiens (Human), UniProt Q06187)
Assay: Btk in vitro inhibitory activity (one of Method A TR-FRET, Method B electrophoretic mobility shift, Method C radiometric filter binding)
Format: biochemical
[1] = determined using one of the methods of Example 355a, 355b and 355c, read-out: BTK IC50

Chain of BTK (Q06187 whole entry): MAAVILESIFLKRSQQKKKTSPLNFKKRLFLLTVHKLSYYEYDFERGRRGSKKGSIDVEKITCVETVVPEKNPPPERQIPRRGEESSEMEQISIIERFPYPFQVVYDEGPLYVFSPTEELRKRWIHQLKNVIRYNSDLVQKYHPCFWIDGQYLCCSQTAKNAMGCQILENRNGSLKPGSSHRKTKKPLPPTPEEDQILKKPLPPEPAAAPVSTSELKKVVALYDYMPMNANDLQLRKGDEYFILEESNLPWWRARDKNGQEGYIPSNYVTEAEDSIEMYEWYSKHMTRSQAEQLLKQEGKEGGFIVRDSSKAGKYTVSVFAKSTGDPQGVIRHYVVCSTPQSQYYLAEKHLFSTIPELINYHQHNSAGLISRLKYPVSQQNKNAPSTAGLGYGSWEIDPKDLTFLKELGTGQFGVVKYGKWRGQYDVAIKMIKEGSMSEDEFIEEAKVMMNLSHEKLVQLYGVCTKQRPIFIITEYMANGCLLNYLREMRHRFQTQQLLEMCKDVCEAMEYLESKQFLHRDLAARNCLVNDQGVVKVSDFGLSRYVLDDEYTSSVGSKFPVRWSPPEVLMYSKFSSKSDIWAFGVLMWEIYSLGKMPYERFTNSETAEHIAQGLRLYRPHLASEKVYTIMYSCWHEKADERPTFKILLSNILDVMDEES

Row | Structure (SMILES) | pIC50 [1] | pIC50 (read-out: Btk (IC50)) | pIC50 (Btk (IC50))
1 | CN1CCCN([C@@H]2CCCN(c3cnc(C(N)=O)c(Nc4ccc(C5(C)CCN(C6CCCC6)CC5)cc4)n3)C2)C1=O [Example 283, (R)-3-(4-(1-cyclopentyl-4-methylpiperidin-4-yl)phenylamino)-5-(3-(3-methyl-2-oxotetrahydropyrimidin-1(2H)-yl)piperidin-1-yl)pyrazine-2-carboxamide] | > 8.00 | > 8.00 | –
2 | CCN1CCN([C@@H]2CCCN(c3cnc(C(N)=O)c(Nc4ccc(C5CCN(C6CCCC6)CC5)cc4)n3)C2)C1=O [Example 275, (R)-3-(4-(1-cyclopentylpiperidin-4-yl)phenylamino)-5-(3-(3-ethyl-2-oxoimidazolidin-1-yl)piperidin-1-yl)pyrazine-2-carboxamide] | > 8.00 | > 8.00 | –
3 | CN1CCN(c2ccc(Nc3nc(N4CCC[C@@H](NC(=O)N5CCCCC5)C4)cnc3C(N)=O)cc2)CC1 [Example 146, (R)-3-(4-(4-methylpiperazin-1-yl)phenylamino)-5-(3-(piperidine-1-carboxamido)piperidin-1-yl)pyrazine-2-carboxamide] | 7.00 to 8.00 | – | 7.00 to 8.00
4 | NC(=O)c1ncc(N2CCC[C@@H](N3CCNC3=O)C2)nc1Nc1ccc(C2CCN(C3CCCC3)CC2)cc1 [Example 274, (R)-3-(4-(1-cyclopentylpiperidin-4-yl)phenylamino)-5-(3-(2-oxoimidazolidin-1-yl)piperidin-1-yl)pyrazine-2-carboxamide] | > 8.00 | > 8.00 | –
5 | NC(=O)c1ncc(N2CCC[C@@H](N3CCN(C4CC4)C3=O)C2)nc1Nc1ccc(C2CCN(C3CCC3)CC2)cc1 [Example 278, (R)-3-(4-(1-cyclobutylpiperidin-4-yl)phenylamino)-5-(3-(3-cyclopropyl-2-oxoimidazolidin-1-yl)piperidin-1-yl)pyrazine-2-carboxamide] | > 8.00 | > 8.00 | –
6 | CN(C)C/C=C/C(=O)N1CCC[C@@H](N(C)c2cnc(C(N)=O)c(Nc3ccc(C(=O)N4CCOCC4)cc3)n2)C1 [Example 75, (R,E)-5-((1-(4-(dimethylamino)but-2-enoyl)piperidin-3-yl)(methyl)amino)-3-(4-(morpholine-4-carbonyl)phenylamino)pyrazine-2-carboxamide] | > 8.00 | – | –
7 | CC[C@@H]1[C@H](NC(=O)N(C)C)CCCN1c1cnc(C(N)=O)c(Nc2ccc(C3CCN(C4CCC4)CC3)cc2)n1 [Example 236, 3-(4-(1-cyclobutylpiperidin-4-yl)phenylamino)-5-((2R,3R)-3-(3,3-dimethylureido)-2-ethylpiperidin-1-yl)pyrazine-2-carboxamide] | > 8.00 | > 8.00 | –
8 | N#Cc1ccc(C(=O)N[C@@H]2CCCN(c3nnc(C(N)=O)c(Nc4ccc(C(=O)N5CCOCC5)cc4)n3)C2)cc1 [Example 7, (R)-3-(3-(4-cyanobenzamido)piperidin-1-yl)-5-(4-(morpholine-4-carbonyl)phenylamino)-1,2,4-triazine-6-carboxamide] | 7.00 to 8.00 | – | –
9 | CCN1CCC(c2ccc(Nc3nc(N4CCC[C@@H](N5CCN(C)C5=O)C4)cnc3C(N)=O)cc2)CC1 [Example 257, (R)-3-(4-(1-ethylpiperidin-4-yl)phenylamino)-5-(3-(3-methyl-2-oxoimidazolidin-1-yl)piperidin-1-yl)pyrazine-2-carboxamide] | > 8.00 | > 8.00 | –
10 | CC(C)C1CCN(C(=O)N[C@@H]2CCCN(c3nnc(C(N)=O)c(Nc4ccc(C(=O)N5CCOCC5)cc4)n3)C2)CC1 [Example 82, (R)-3-(3-(4-isopropylpiperidine-1-carboxamido)piperidin-1-yl)-5-(4-(morpholine-4-carbonyl)phenylamino)-1,2,4-triazine-6-carboxamide] | 7.00 to 8.00 | – | 7.00 to 8.00
11 | COc1ccc(C(=O)N[C@@H]2CCCN(c3cnc(C(N)=O)c(Nc4ccc(-n5ccccc5=O)cc4)n3)C2)cc1 [Example 127, (R)-5-(3-(4-methoxybenzamido)piperidin-1-yl)-3-(4-(2-oxopyridin-1(2H)-yl)phenylamino)pyrazine-2-carboxamide] | 7.00 to 8.00 | 7.00 to 8.00 | –
12 | CCOc1ccc(Nc2nc(N3CCC[C@@H](NC(=O)c4ccc(OC)cc4)C3)cnc2C(N)=O)cc1 [Example 111, (R)-3-(4-ethoxyphenylamino)-5-(3-(4-methoxybenzamido)piperidin-1-yl)pyrazine-2-carboxamide] | 7.00 to 8.00 | 7.00 to 8.00 | –
